Measured values: patent US20100321430A1, “INK COMPOSITION FOR INK JET RECORDING” (priority 2009, published 2010)

Assay: Solubility of 1,2-octanediol in aqueous solution containing an alcohol solvent
Assay type: physicochemical
Details: for ability to dissolve 1,2-octanediol compared with HED: aqueous solution containing 10% by weight 1,2-octanediol and 10% by weight 1,2-hexanediol, FIGURE
Method: An aqueous solution containing 10% by weight of 1,2-octanediol, which is a water-insoluble alkanediol, was prepared. […] Therefore, the aqueous solution was cloudy.
Five alcohol solvents were each added to 10 g of the aqueous solution until the aqueous solution became transparent. The five alcohol solvents were 1,6-hexanediol (hereinafter referred to as 1,6-HED), 3-methyl-1,5-pentanediol (hereinafter referred to as 3 MPED), 1,5-pentanediol (hereinafter referred to as 1,5-PED), 1,2-hexanediol (hereinafter referred to as HED), and 2,2′-dimethylpropanediol (hereinafter referred to as 2 MPRD).
Another aqueous solution containing 10% by weight of 1,2-octanediol and 10% by weight of 1,2-hexanediol, which is a water-soluble alkanediol, was prepared. The five alcohol solvents were added to this aqueous solution in the same manner as described above until this aqueous solution became transparent.

solubility in water (aqueous solution containing 10% by weight) | Compound | ability to dissolve 1,2-octanediol compared with HED
not completely dissolved | CCCCCCC(O)CO (centres unmarked) [1,2-octanediol] | –
– | OCCCCCO [1,5-PED, 1,5-pentanediol] | more capable of dissolving 1,2-octanediol
– | OCCCCCCO [1,6-HED, 1,6-hexanediol] | more capable of dissolving 1,2-octanediol
– | CC(C)(CO)CO [2 MPRD, 2,2′-dimethylpropanediol] | more capable of dissolving 1,2-octanediol
– | CC(CCO)CCO [3 MPED, 3-methyl-1,5-pentanediol] | more capable of dissolving 1,2-octanediol
